13 compounds from PubChem BioAssay AID743125 (Broad Institute, 2013) can be followed below.

Values joined by “and” are separate entries in the source; they are usually repeats but may differ in a detail not shown here. Identical values can stand only once. Active and inactive are the calls of the source.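 How the source made its calls: active means fitted AC50 no higher than twice the top valid dose tested for that sample; inconclusive means flat curve between -30 and -70% activity, or poor fit; inactive means the rest.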

The target of one assay is PglD UDP-4-amino-sugar N-acetyltransferase (Campylobacter jejuni). The experiment in a line: inhibition of C. jejuni PglD N-acetyltransferase – biochemical, DTNB absorbance, dry powder samples, set 5, dose response (AID 743125). The conditions noted are these: purified PglD, DTNB absorbance 412 nm, CoA release.
As to `COc1cccc(/C=C/c2nc3sc(C(=O)O)c(C)c3c(=O)[nH]2)c1`, the concentration at half-maximal activity (AC50) (commonly the midpoint of the concentration-response curve, whichever way the signal moves) was 11.5 µM.

As for `Cc1c(C(=O)O)sc2nc(/C=C/c3ccc4[nH]ccc4n3)[nH]c(=O)c12`, the AC50 is 7 µM.

Regarding `Cc1c(C(=O)O)sc2nc(/C=C/c3cccc(O)c3)[nH]c(=O)c12`, the AC50 is 27.6 µM and 3.61 µM.

Consider `Cc1c(C(=O)O)sc2nc(/C=C/c3cccc([N+](=O)[O-])c3)[nH]c(=O)c12`, for which the AC50 was > 39 µM (inactive).

Take `Cc1c(C(=O)O)sc2nc(/C=C/c3ccccc3O)[nH]c(=O)c12`: the concentration at half-maximal activity (AC50) is 24.9 µM.

As to `Cc1c(C(=O)O)sc2nc(/C=C/c3cccc(N)c3)[nH]c(=O)c12`, the AC50 is 16.9 µM.

As to `Cc1c(C(=O)O)sc2nc(/C=C/c3ccccn3)[nH]c(=O)c12`, the AC50 is 7.09 µM.

As for `Cc1c(C(=O)O)sc2nc(/C=C/c3cccc(=O)[nH]3)[nH]c(=O)c12`, the AC50 was 4.69 µM.

With `Cc1c(C(=O)O)sc2nc(/C=C/c3cccc(N4CCOCC4)n3)[nH]c(=O)c12`, the AC50 is > 20 µM (inactive).

For the compound `Cc1c(C(=O)O)sc2nc(/C=C/c3cccc(OC(F)(F)F)c3)[nH]c(=O)c12`, the AC50 is > 39 µM (inactive).

The assay is the same for the next values; noted with them: purified PglD, DTNB absorbance 412 nm, CoA release; at 1 µM (top of the series).
For the compound `Cc1c(C(=O)O)sc2nc(/C=C/c3ccc(O)cn3)[nH]c(=O)c12`, the “activity change, negative = inhibition” value is “inactive”.

Still in this assay, the particulars now being: purified PglD, DTNB absorbance 412 nm, CoA release; at 10 µM (top of the series).
As to `Cc1c(C(=O)O)sc2nc(/C=C/c3cccnc3N)[nH]c(=O)c12`, the “activity change, negative = inhibition” value is “inactive”.

Staying with this assay, now noted: purified PglD, DTNB absorbance 412 nm, CoA release; at 38 µM (top of the series).
In the case of `Cc1c(C(=O)O)sc2nc(/C=C/c3cccc(N4CCNCC4)c3)[nH]c(=O)c12`, the “activity change, negative = inhibition” value was “inactive”.
